In brackets after ≈: the same amount, converted by molar mass.
Tests used:
Rattus norvegicus [1] = assay: Dose normalized AUC in po dosed rat; assay type: ADME, organism-based; settings: in vivo
Rattus norvegicus [2] = assay: Inhibition of capsaicin-induced micturition frequency in Sprague-Dawley rat overactive bladder model at 3 mg/kg, iv relative to control; assay type: functional
[3] = biological target: Transient receptor potential cation channel subfamily V member 1 (Rattus norvegicus, UniProt O35433); assay: Antagonist activity at rat TRPV1 expressed in CHO cells co-expressing aequorin and CRE-luciferase reporter gene assessed as inhibition of capsaicin-induced calcium flux; assay type: functional, cell-based
Sequence of Transient receptor potential cation channel subfamily V member 1 (Rattus norvegicus, UniProt O35433) (O35433 whole entry): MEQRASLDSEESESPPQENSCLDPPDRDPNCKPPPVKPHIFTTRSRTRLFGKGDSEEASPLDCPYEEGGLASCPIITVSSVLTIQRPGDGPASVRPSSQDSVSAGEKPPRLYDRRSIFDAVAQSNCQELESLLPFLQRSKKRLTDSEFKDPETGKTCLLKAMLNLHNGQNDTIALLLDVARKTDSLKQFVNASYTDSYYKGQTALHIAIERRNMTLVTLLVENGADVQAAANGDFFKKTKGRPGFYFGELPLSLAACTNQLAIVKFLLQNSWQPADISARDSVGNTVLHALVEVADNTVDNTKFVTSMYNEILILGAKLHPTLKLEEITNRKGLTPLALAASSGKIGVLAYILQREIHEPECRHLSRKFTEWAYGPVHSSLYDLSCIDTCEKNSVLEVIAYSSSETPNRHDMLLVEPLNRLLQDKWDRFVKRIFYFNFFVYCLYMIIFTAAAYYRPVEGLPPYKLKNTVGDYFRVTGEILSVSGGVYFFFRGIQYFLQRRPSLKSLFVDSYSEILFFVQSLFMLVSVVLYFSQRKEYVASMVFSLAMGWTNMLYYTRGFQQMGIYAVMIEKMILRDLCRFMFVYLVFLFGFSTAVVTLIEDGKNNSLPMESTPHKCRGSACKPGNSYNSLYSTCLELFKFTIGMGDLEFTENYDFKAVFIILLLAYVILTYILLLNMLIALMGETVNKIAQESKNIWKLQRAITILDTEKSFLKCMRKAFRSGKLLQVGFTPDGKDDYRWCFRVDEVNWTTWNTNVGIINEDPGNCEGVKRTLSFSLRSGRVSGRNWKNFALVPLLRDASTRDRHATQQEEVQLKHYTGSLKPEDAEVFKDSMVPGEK

[4] = biological target: Transient receptor potential cation channel subfamily V member 1 (Homo sapiens, UniProt Q8NER1); assay: Antagonist activity at human TRPV1 expressed in CHO cells co-expressing aequorin and CRE-luciferase reporter gene assessed as inhibition of capsaicin-induced calcium flux; assay type: functional, cell-based
Sequence of Transient receptor potential cation channel subfamily V member 1 (Homo sapiens, UniProt Q8NER1) (Q8NER1 whole entry): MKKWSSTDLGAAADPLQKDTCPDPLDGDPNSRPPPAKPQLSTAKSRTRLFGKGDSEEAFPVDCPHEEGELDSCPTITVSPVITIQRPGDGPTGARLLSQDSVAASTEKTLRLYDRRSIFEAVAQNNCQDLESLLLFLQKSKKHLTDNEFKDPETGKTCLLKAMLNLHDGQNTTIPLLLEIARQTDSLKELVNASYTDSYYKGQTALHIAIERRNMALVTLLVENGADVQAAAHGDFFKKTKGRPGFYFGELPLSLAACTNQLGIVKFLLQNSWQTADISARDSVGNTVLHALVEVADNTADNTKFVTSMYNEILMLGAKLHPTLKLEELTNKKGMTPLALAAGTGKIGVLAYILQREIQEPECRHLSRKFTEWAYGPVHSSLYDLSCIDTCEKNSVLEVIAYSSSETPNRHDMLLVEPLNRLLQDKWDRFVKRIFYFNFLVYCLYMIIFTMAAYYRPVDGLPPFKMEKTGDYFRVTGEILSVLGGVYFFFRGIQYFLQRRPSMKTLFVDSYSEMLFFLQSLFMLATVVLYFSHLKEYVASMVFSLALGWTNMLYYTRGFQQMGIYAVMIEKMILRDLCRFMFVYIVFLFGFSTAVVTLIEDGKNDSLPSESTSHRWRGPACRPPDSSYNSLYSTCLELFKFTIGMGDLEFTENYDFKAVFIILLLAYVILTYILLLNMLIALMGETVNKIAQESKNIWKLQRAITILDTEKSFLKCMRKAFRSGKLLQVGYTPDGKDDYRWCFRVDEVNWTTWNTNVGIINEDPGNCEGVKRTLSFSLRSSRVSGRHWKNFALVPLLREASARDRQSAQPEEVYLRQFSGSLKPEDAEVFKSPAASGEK

Rattus norvegicus [5] = assay: Inhibition of capsaicin-induced micturition frequency in Sprague-Dawley rat overactive bladder model at 10 mg/kg, iv relative to control; assay type: functional
Rattus norvegicus [6] = assay: Inhibition of cyclophosphamide-induced voiding frequency in iv dosed Sprague-Dawley rat cystitis model; assay type: functional, organism-based
Rattus norvegicus [7] = assay: Inhibition of cyclophosphamide-induced bladder capacity in iv dosed Sprague-Dawley rat cystitis model; assay type: functional, organism-based
[8] = Oral bioavailability in Sprague-Dawley rat; assay type: ADME, organism-based; settings: in vivo
[9] = Solubility of the compound; assay type: physicochemical

IC50 [3] [nM]	IC50 [4] [nM]	Structure (SMILES)	further results
–	–	O=C(Nc1ccc(Cl)c(C(F)(F)F)c1)Nc1c(Cl)c(Br)cc2ccc(O)cc12	AUC (Rattus norvegicus [1]): 477 ng·h/mL; inhibition in vivo at 3 mg/kg (Rattus norvegicus [2]): 88%
14	7.5	O=C(Nc1cccc([N+](=O)[O-])c1)Nc1cccc2ccc(O)cc12	–
1.6	1.7	CCOC(=O)c1cccc(NC(=O)Nc2cccc3ccc(O)cc23)c1	–
8.6	8	COc1cccc(NC(=O)Nc2cccc3ccc(O)cc23)c1	–
4.5	3.5	O=C(Nc1cccc(C(F)(F)F)c1)Nc1cccc2ccc(O)cc12	–
16	12	O=C(Nc1ccc(Cl)cc1Cl)Nc1cccc2ccc(O)cc12	–
39	28	CC(=O)c1cccc(NC(=O)Nc2cccc3ccc(O)cc23)c1	–
–	34	O=C(Cc1cccc2ccc(O)cc12)Nc1ccc(Cl)c(C(F)(F)F)c1	–
–	–	O=C(Nc1ccc(Cl)c(C(F)(F)F)c1)Nc1c(Cl)c(Cl)cc2ccc(O)cc12	AUC (Rattus norvegicus [1]): 84 ng·h/mL; inhibition in vivo at 10 mg/kg (Rattus norvegicus [5]): 55%; inhibition (Rattus norvegicus [6]): Dose-dependent effect; inhibition (Rattus norvegicus [7]): Dose-dependent effect; bioavailability [8]: 3%; solubility [9]: 0.03 µg/mL (≈ 0.0667 µM)
64	87	O=C(Nc1ccccc1C(F)(F)F)Nc1cccc2ccc(O)cc12	–
–	–	O=C(Nc1ccc(Cl)c(C(F)(F)F)c1)Nc1c(Br)c(Br)cc2ccc(O)cc12	AUC (Rattus norvegicus [1]): 596 ng·h/mL; inhibition in vivo at 3 mg/kg (Rattus norvegicus [2]): 11%; inhibition in vivo at 10 mg/kg (Rattus norvegicus [5]): 65%
–	> 1000	O=C(Cc1cccc(F)c1)Nc1cccc2ccc(O)cc12	–
4.9	5.4	O=C(Nc1ccc(C(F)(F)F)cc1)Nc1cccc2ccc(O)cc12	–
7.1	3.9	CSc1cccc(NC(=O)Nc2cccc3ccc(O)cc23)c1	–
> 1000	> 1000	O=C(NCc1cccc(O)c1)Nc1cccc(F)c1	–
–	–	COc1ccc2cccc(NC(=O)Nc3ccc(Cl)c(C(F)(F)F)c3)c2c1	AUC (Rattus norvegicus [1]): 114 ng·h/mL
4.5	3.4	O=C(Nc1ccc(Cl)c(C(F)(F)F)c1)Nc1c(Cl)ccc2ccc(O)cc12	AUC (Rattus norvegicus [1]): 3 ng·h/mL
270	520	O=C(Nc1cccc(C(=O)O)c1)Nc1cccc2ccc(O)cc12	–
